The record followed here is patent US20240294478A1, “ANTI-CANCER COMPOUNDS AND METHODS OF USE” (YALE UNIVERSITY, priority 2021, published 2024).

Data set [1] has as its system BJ fibroblast cells (normal cells). Put plainly: Short-term cell viability, normal fibroblasts. The format is cell-based, human. Conditions: compared with TMZ. As for the experimental part:
FIG. 1B: Short-term viability assay curves for KL-50 in DLD1 MSH6-deficient cells pre-treated with 0.01% DMSO control (CTR) or 10 μM O^6BG (+O^6BG) for 1 h prior to KL-50 addition. […] Short-term viability assay curves for (FIG. 1E) KL-50 in HCT116 MLH1−/−cells or (FIG. 1F) HCT116 cells complemented with chromosome 3 carrying wildtype MLH1 (+Chr3) pre-treated with 0.01% DMSO control or 10 μM O^6BG (+O^6BG) for 1 h prior to KL-50 addition. […] For these figures, points, mean; error bars, SD; n>3 technical replicates.
Short-term Cell Viability Assay. Cells were seeded in 96-well plates at 1000 or 2000 cells/well and allowed to adhere at 23° C. for 60 min and then incubated overnight at 37° C. Cells were treated with indicated concentrations of compounds in triplicate for 4-6 days prior to fixation with 3.7% paraformaldehyde and nuclear staining with 1 μg/mL Hoechst 33342 dye. Cells were imaged on a Cytation 3 imaging reader (BioTek) and quantified using CellProfiler software. For in vitro short-term growth delay experiments, IC50 values were determined from the nonlinear regression equation, [inhibitor] vs normalized response with variable slope.

For data set [2], the system named is PEO4 (BRCA2+) and PEO1 (BRCA2−/−) cells. As to the kind of experiment: Short-term viability assay, PEO1/PEO4 model +/- O6BG. The format is cell-based, human. Particulars: PE01/4 model. How it is done: FIGS. 8A-8K. (FIG. 8A) Change in percent cells with 1 micronuclei from baseline (DMSO control) after treatment as in FIGS. 5A and 5C. […] (FIG. 8B) Short-term viability assay curves for KL-50 in PD20 cells, deficient in FANCD2 (FANCD2−/−) or complemented with FANCD2 (+FANCD2). (FIG. 8C) Short-term viability assay curves for KL-50 in PEO4 (BRCA2+) and PEO1 (BRCA2−/−) cells pre-treated with 0.01% DMSO control or 10 μM O^6BG (+O^6BG) for 1 h prior to KL-50 addition. (FIG. 8D) Short-term viability assay curves for KL-50 in DLD1 BRCA2+/− and BRCA2−/−cells pre-treated with 0.01% DMSO control or 10 μM O^6BG (+O^6BG) for 1 h prior to KL-50 addition. For FIGS. 8B-8D, points, mean; error bars, SD; n=3 technical replicates. […] The % FANCD2 ubiquitination (% FANCD2 Ub) is quantified as the background-corrected integrated band intensity of the upper band divided by the sum of the background-corrected integrated band intensities of the upper and lower bands. […]
Short-term Cell Viability Assay. […] Cells were imaged on a Cytation 3 imaging reader (BioTek) and quantified using CellProfiler software. For in vitro short-term growth delay experiments, IC50 values were determined from the nonlinear regression equation, [inhibitor] vs normalized response with variable slope.

Data set [3] has as its system large MGMT−/MMR+ and MGMT−/MSH6− LN229 flank tumors. As to the kind of experiment: Flank tumor third study: large tumors. The format is in vivo, mouse. Particulars: 25 mg/kg PO MWF x 3 weeks. An excerpt:
FIGS. 9A-91: KL-50 is safe and efficacious on both MGMT−/MMR+ and MGMT−/MMR-flank tumors over a wide range of treatment regimens and conditions. […] (FIG. 9C) Mean body weight of mice during LN229 flank tumor experiments. (FIG. 9D) Kaplan-Meier analysis of LN229 MGMT−/MMR− xenograft flank tumor-bearing mice to determine survival rate based on death, removal from study if mouse body weight loss exceeded 20% of initial body weight, or if tumor volume exceeded 2000 mm^3. […] (FIGS. 9H-91) Xenograft LN229 MGMT−/MMR+ and LN229 MGMT−/MSH6—flank tumors with a larger average starting tumor size of −400 mm^3 and −350 mm^3 respectively, treated with 3 weekly cycles of P.O administration of 10% cyclodextrin (n=4) or KL-50 (n=4, 3 cycles of 25 mg/kg on Monday, Wednesday, and Friday). The study period was limited by control groups which had to be euthanized for exceeding the ethical maximum allowed tumor size, thus ending the study. In all panels, points, mean; error bars, SEM; *, P<0.05; **, P<0.01; ***, P<0.001; ****, P<0.0001; ns, not significant.
The third study involved MGMT−/MMR+ and MGMT−/MSH6—(shMSH6) LN229 cells. Mice tumors were allowed to grow to a larger average starting volume of −350 mm^3 before they were randomized and administered either KL-50 (25 mg/kg MWF×3 weeks) or vehicle (10% cyclodextrin) by oral gavage. […]

Data set [4] in a line: Maximum tolerated dose study in healthy mice. It counts as in vivo. The text has this: FIGS. 10A-10G. KL-50 is efficacious in an LN229 MGMT−/MMR− intracranial model and is well tolerated with limited myelosuppression at supratherapeutic doses. […] (FIG. 10B) Mean body change with SEM of mice during maximum tolerated dose experiment in non-tumor bearing mice. (FIGS. 10C-10G) Complete blood counts for mice pre-treatment and 7 days post-treatment with escalations of single dose KL-50 delivered PO. WBC lower limit of normal (LLN): 2.2 K/L; Neutrophils LLN: 0.42 K/L; Lymphocyte LLN: 1.7 K/L; RBC LLN: 3.47 M/L; Platelet LLN: 155 K/L. *, P<0.05; ****, P<0.0001.
Healthy mice were treated with escalating doses of KL-50 (0, 25, 50, 100, and 200 mg/kg x 1 dose), and monitored over time for changes in both weights and hematologic profiles. […]. […]

The test system of data set [5] is PD20 cells, deficient in FANCD2 (FANCD2−/−) or complemented with FANCD2. As to the kind of experiment: Short-term viability assay, PD20 cells. It counts as cell-based, human. Particulars: PD20 FANCD2−/− vs +FANCD2. How it is done: FIGS. 8A-8K. (FIG. 8A) Change in percent cells with 1 micronuclei from baseline (DMSO control) after treatment as in FIGS. 5A and 5C. […] (FIG. 8B) Short-term viability assay curves for KL-50 in PD20 cells, deficient in FANCD2 (FANCD2−/−) or complemented with FANCD2 (+FANCD2). (FIG. 8C) Short-term viability assay curves for KL-50 in PEO4 (BRCA2+) and PEO1 (BRCA2−/−) cells pre-treated with 0.01% DMSO control or 10 μM O^6BG (+O^6BG) for 1 h prior to KL-50 addition. (FIG. 8D) Short-term viability assay curves for KL-50 in DLD1 BRCA2+/− and BRCA2−/−cells pre-treated with 0.01% DMSO control or 10 μM O^6BG (+O^6BG) for 1 h prior to KL-50 addition. For FIGS. 8B-8D, points, mean; error bars, SD; n=3 technical replicates. […] Change in percent cells with 1 micronuclei from baseline (DMSO control) after treatment with olaparib (10 μM) for 48 h in LN229 MGMT+/−, MMR+/−cells. […] Western blot analysis of FANCD2 ubiquitination in LN229 MGMT+/−, MMR+/−cells and PD20 FANCD2-deficient cells, complemented with empty vector (FANCD2+EV), wildtype FANCD2 (PD20+FD2) or ubiquitination-mutant FANCD2 (PD20+KR). The % FANCD2 ubiquitination (% FANCD2 Ub) is quantified as the background-corrected integrated band intensity of the upper band divided by the sum of the background-corrected integrated band intensities of the upper and lower bands. The fold change in % FANCD2 ubiquitination is presented for each cell line relative to DMSO-treated cells. Vinculin serves as loading control. For 8J-8K, points, mean; error bars, SD; n=3 technical replicates.
Short-term Cell Viability Assay. Cells were seeded in 96-well plates at 1000 or 2000 cells/well and allowed to adhere at 23° C. for 60 min and then incubated overnight at 37° C. […] Cells were imaged on a Cytation 3 imaging reader (BioTek) and quantified using CellProfiler software. For in vitro short-term growth delay experiments, IC50 values were determined from the nonlinear regression equation, [inhibitor] vs normalized response with variable slope.

For the compound `NC(=O)c1ncn2c(=O)n(CCF)nnc12` [KL-50], in data set [1], the “cytotoxicity in normal human fibroblast cells” value was “No increase in toxicity”. The “therapeutic index (TI)” value in data set [2] is given as 62 fold. Besides, the “growth of large (350-400 mm^3) tumors” value in data set [3] is listed as “potently suppressed the growth”. In data set [4] (200 mg/kg x 1 dose), the “mice observably ill warranting euthanasia” value is “Two of three mice”. In data set [4] (25, 50, 100 mg/kg x 1 dose), the “toxicity in remaining cohorts” value is on record as “no evidence of toxicity”. The “complete blood counts day 7” value in data set [4] (all cohorts, 0-200 mg/kg single dose PO) is given as “within normal physiological ranges”. For the same compound, in data set [4] (escalating single doses), the “tolerability, overall” value is recorded as “well-tolerated”. Besides, the “weight loss after treatment administration” value in data set [4] (single dose 100 or 200 mg/kg, regressed to baseline at the end of one week) is recorded as “greater than 10%”. Also, the “sensitivity of FANCD2-deficient cells” value in data set [5] is “hypersensitive”.
